Values after ≈ are worked out from the molar mass of the structure shown.
How the values were obtained:
[1] = test system: CRE; experiment: Resensitization to antibiotics (log reduction, TABLE 29); assay type: cell-based
Protocol: (§1) In a 96-well microtiter plate, two-fold dilutions were made of each drug (starting with 100 μM) in 100 μL of a cell suspension in TSB. The resulting samples were incubated overnight at 37° C. on a rotary shaking incubator at 100 rpm. The samples were then visually inspected for turbidity. A 20% well volume of MTT reagent (5 mg/mL) was subsequently added, and the samples were incubated for about 20 minutes.

[2] = test system: MRSA (ATCC BAA-44); experiment: Synergy with oxacillin and norfloxacin and other antibiotics (colony counts); assay type: cell-based, S. aureus; conditions: for MICs greater than cells treated with compound alone, with norfloxacin / MICs greater than cells treated with compound alone, with oxacillin: FIGS. 35-38; for Synergy with Norfloxacin / Synergy with Oxacillin: TABLE 6; for log reduction in the number of surviving cells (CFU/mL), co-treatment with norfloxacin / log reduction in the number of surviving cells (CFU/mL), co-treatment with oxacillin: compared to compound alone, FIGS. 34, 39, 41; for Orders of Magnitude with Norfloxacin / Orders of Magnitude with Oxacillin: increase in ability to kill MRSA versus drug or compound alone
Protocol: The synergy of compounds 1 and 7-11 with oxacillin and norfloxacin was tested against MRSA (ATCC BAA-44). An overnight culture of MRSA was first diluted to about 5×10^5 CFU/mL in TSB. Then, 1 mL of the diluted broth suspension was added to a borosilicate glass culture tube. An appropriate volume of a compound or an antibiotic drug stock was added to the broth suspension and mixed using a vortex mixer. Then an appropriate volume of an antibiotic was added to test synergy with compounds 7-11. The samples were subsequently mixed using a vortex mixer, and the samples were incubated for 18 hours at 37° C. on a rotary shaking incubator. After 18 hours, the test cultures were diluted ten-fold, 10 μL of each dilution was drip-streaked onto a TSA plate, and the samples were incubated for 18 hours at 37° C. Colony counts were then performed and the CFU/mL values were calculated.
TABLE 21 details the MIC values identified in the MRSA assay of compounds 1, 7, 8, 9, 10, 11, various antibiotics, and light.

[3] = test system: Klebsiella pneumoniae (CRE, ATCC BAA-1705); experiment: Cell killing of CRE with compounds in presence or absence of PMB (CFU/mL); assay type: cell-based; conditions: for PMB + Comp: PMB @ 0.2 μg/mL + Comp @ 20 µM; for Comp @ 20 µM: compound alone
Protocol: Klebsiella pneumoniae (CRE, ATCC BAA-1705) was grown in TSB overnight at 37° C. and diluted to about 5×10^5 CFU/mL using a McFarland Latex Turbidity standard (0.5). One mL of the cell suspension was transferred to a glass culture test tube. PMB was added to the cell suspension resulting in a final concentration of 200 μg/mL of PMB. The cell suspension was incubated at 37° C. on a rotary shaking incubator at 150 rpm for 4 hours. Compounds 1, 7, 8, 9, 10, and 11 were added to the cell suspension, resulting in a concentration of 20 μM for each of the compounds. The cell suspensions containing the compounds were incubated at 37° C. on a rotary shaking incubator at 150 rpm for 4 hours. Each sample was diluted tenfold to a 10^−5 dilution. Ten 10 microliters of each dilution from each sample was dripped onto a TSA plate and allowed to streak down the plate. The agar plates were incubated at 37° C. for 18-24 hours. Colony counts were performed and CFU/mL values were calculated.
The MICs of PMB and compounds 7-11 were determined against Klebsiella pneumoniae (CRE, ATCC BAA-1705). […] After the incubation with PMB, each of the compounds was added at a concentration of 20 μM, and the samples were incubated for an additional 18 hours. A sample was taken and diluted ten-fold in media. Ten microliters of each dilution was then drip-streaked onto an agar plate and incubated overnight at 37° C. Colony counts were then performed and the concentrations of cells (CFU/mL) were calculated.

[4] = test system: P. aeruginosa; experiment: Cell killing with compounds and PME at fixed concentrations, with and without white light; assay type: cell-based; conditions: for Co-treatment with PME: log reduction in the CFU/mL compared to PME alone: 20 μM compound and 0.1 μg/mL PME
Protocol: FIG. 26 is an example of the treatment of P. aeruginosa with compound 1 and PME at fixed concentrations.
P. aeruginosa cells were also treated with white light upon being incubated with compound 1 for different durations of time. In a 12×75 mm borosilicate glass culture tube, 1 mL of cell suspension was added. PME was added to the cells, and the samples were mixed using a vortex mixer. The resulting samples were incubated for 1.5 hours at 37° C. on a rotary shaking incubator at 100 rpm. Compound 1 was then added, and the samples were incubated for 30 minutes at 37° C. on a rotary shaking incubator at 100 rpm. The samples were then irradiated with white light using a Lumacare™ LC-122 for 2 minutes (irradiation λ1) and incubated overnight at 37° C. The samples were irradiated again with white light using a Lumacare™ LC-122 for 2 minutes (irradiation λ2). Ten-fold dilutions were made of each sample, and 10 μL of each dilution was drip-streaked onto an agar plate. The samples were incubated overnight at 37° C., and colony counts were performed to calculate CFU/mL.
FIG. 55 is an illustrative example of the treatment of P. aeruginosa with compound 1, PME, co-treatment with compound 1 and PME, and co-treatment with compound 1, PME, and light (λ1 and λ2) at fixed concentrations.

[5] = test system: S. aureus (ATCC 29213); experiment: MIC against drug sensitive S. aureus; assay type: cell-based; conditions: Staphylococcus aureus, ATCC29213; ATCC 29213; read-out: S. aureus MIC
[6] = test system: VRE; experiment: Resensitization to antibiotics (log reduction, TABLE 29); assay type: cell-based, Enterococcus faecalis
Protocol: as §1

[7] = test system: P. aeruginosa; experiment: as above; assay type: cell-based; conditions: compound 20 μM
[8] = test system: A. baumannii (ATCC 15151); experiment: MIC against A. baumannii; assay type: cell-based; conditions: Acinetobacter baumannii, ATCC15151
Protocol: TABLE 28 details the individual MIC values of compounds 1, 7, 8, 9, 10, 11, PMB, PME, and light against A. baumannii.
The MICs of PME and compounds 8-11 were determined against A. baumannii (ATCC 15151). […] After incubating the cells with PME, a compound (5 μM) was added, and the samples were further incubated at 37° C. At specific time points, samples were taken and diluted ten-fold in media. Ten microliters of each dilution was then drip-streaked onto an agar plate and incubated overnight at 37° C. Colony counts were then performed, and the CFU/mL were calculated.

[9] = compound 20 μM, PME (0.2 μg/mL)
[10] = (⅛) MIC compound + (1/16) MIC Norfloxacin
[11] = (⅛) MIC compound + (⅛) MIC Oxacillin
[12] = (½) MIC compound + (¼) MIC Norfloxacin
[13] = (½) MIC compound + (⅓) MIC Oxacillin
[14] = (⅛) MIC compound + (1/7) MIC Norfloxacin
[15] = (⅛) MIC compound + (¼) MIC Oxacillin
[16] = (1/40) MIC compound + (1/30) MIC Tetracycline
[17] = (1/40) MIC compound + (1/31) MIC Dicloxicillin
[18] = (1/40) MIC compound + (1/50) MIC Dicloxicillin
[19] = (1/40) MIC compound + (1/50) MIC Norfloxacin
[20] = (1/40) MIC compound + (1/50) MIC Tobramycin
[21] = (1/40) MIC compound + (¼) MIC Oxacillin
[22] = (1/40) MIC compound + (⅙) MIC Vancomycin

Clc1ccc(Oc2c(-c3ccc(Cl)cc3)[nH]c3ccccc23)cc1 [Compound 10]
Log Reduction [1, 9]: 6
% Kill [2, 10]: 99.99%
Surviving MRSA [2, 10]: 1.00 × 10^−8
% Kill [2, 11]: 99.99%
Surviving MRSA [2, 11]: 1.00 × 10^−8
MICs greater than cells treated with compound alone, with norfloxacin [2]: eight-fold
MICs greater than cells treated with compound alone, with oxacillin [2]: eight-fold
Synergy with Norfloxacin [2]: 5-log reduction
Synergy with Oxacillin [2]: 4-log reduction
log reduction in the number of surviving cells (CFU/mL), co-treatment with norfloxacin [2]: ~5 log
log reduction in the number of surviving cells (CFU/mL), co-treatment with oxacillin [2]: ~4 log
Orders of Magnitude with Norfloxacin [2]: 8
Orders of Magnitude with Oxacillin [2]: 8
PMB + Comp [3]: None Detected
Comp @ 20 µM [3]: 7.9 × 10^8 CFU/mL
Co-treatment with PME: log reduction in the CFU/mL compared to PME alone [4]: 2-log reduction
Co-treatment with PME: log reduction in the CFU/mL compared to PME alone ([4]; listed as compound 10): ~2 log reduction
MIC [5]: 32 to 64 µM (≈ 11.3 to 22.7 µg/mL)
Log Reduction ([6]; compound 2 μM, Tetracycline (1 μg/mL)): 3-4
Log Reduction ([6]; compound […], Vancomycin (3.5 μg/mL)): 4
Log Reduction ([7]; PME (0.1 μg/mL)): 2
MIC [8]: > 100 µM

Clc1ccc(/N=N/c2c[nH]c3ccccc23)cc1 [Compound 9]
Log Reduction ([1]; compound 20 μM, PMB (0.2 μg/mL)): 6
Log Reduction [1, 9]: 6
% Kill [2, 12]: 99%
Surviving MRSA [2, 12]: 1.00 × 10^−2
% Kill [2, 13]: 99%
Surviving MRSA [2, 13]: 1.00 × 10^−2
MICs greater than cells treated with compound alone, with norfloxacin [2]: two-fold
MICs greater than cells treated with compound alone, with oxacillin [2]: two-fold
Orders of Magnitude with Norfloxacin [2]: >2
Orders of Magnitude with Oxacillin [2]: >2
PMB + Comp [3]: None Detected
Comp @ 20 µM [3]: 6.4 × 10^8 CFU/mL
Co-treatment with PME: log reduction in the CFU/mL compared to PME alone [4]: 2-log reduction
Co-treatment with PME: log reduction in the CFU/mL compared to PME alone ([4]; listed as compound 9): ~2 log reduction
MIC [5]: 16 µM (≈ 4.09 µg/mL)
Log Reduction ([6]; compound 75 μM, Norfloxacin ([…])): 4
Log Reduction ([6]; compound 75 μM, Tetracycline (1.5 μg/mL)): 3-4
Log Reduction ([7]; PME (0.1 μg/mL)): 2
MIC [8]: > 100 µM

Clc1ccc(Oc2c(-c3ccc(Cl)cc3)[nH]c3ccc(Cl)cc23)cc1 [Compound 11]
Log Reduction [1, 9]: 6
% Kill [2, 14]: 99.99%
Surviving MRSA [2, 14]: 1.00 × 10^−5
% Kill [2, 15]: 99.99%
Surviving MRSA [2, 15]: 1.00 × 10^−5
Synergy with Norfloxacin [2]: 8-log reduction
Synergy with Oxacillin [2]: 5-log reduction
log reduction in the number of surviving cells (CFU/mL), co-treatment with norfloxacin [2]: ~8 log
log reduction in the number of surviving cells (CFU/mL), co-treatment with oxacillin [2]: ~5 log
killing of MRSA in conjunction with oxacillin ([2]; compound 11 at 1 μM, FIG. 40): more effective at killing MRSA when used in conjunction with oxacillin
Orders of Magnitude with Norfloxacin [2]: 5
Orders of Magnitude with Oxacillin [2]: 5
PMB + Comp [3]: None Detected
Comp @ 20 µM [3]: 7.8 × 10^8 CFU/mL
Co-treatment with PME: log reduction in the CFU/mL compared to PME alone [4]: 2-log reduction
Co-treatment with PME: log reduction in the CFU/mL compared to PME alone ([4]; listed as compound 11): about 2 log reduction
MIC [5]: 32 to 64 µM (≈ 12.4 to 24.9 µg/mL)
Log Reduction ([6]; compound 0.5 μM, Norfloxacin ([…])): 3-4
Log Reduction ([6]; compound 0.5 μM, Tetracycline (1.5 μg/mL)): 3
Log Reduction ([6]; compound 0.5 μM, Vancomycin (3.5 μg/mL)): 3
Log Reduction ([7]; PME (0.1 μg/mL)): 2
MIC [8]: > 100 µM

Clc1ccc(/C=C/c2[nH]c3ccccc3c2/C=C/c2ccc(Cl)cc2)cc1 [Compound 1]
Log Reduction ([1]; compound 5 μM, PMB (0.2 μg/mL) + Light (2 min)): 3
Log Reduction ([1]; compound 10 μM, PME (0.1 μg/mL)): 9
Log Reduction ([1]; compound 10 μM, PME (0.2 μg/mL) + Light (2 min)): 9
% Kill [2, 16]: 99.99%
Surviving MRSA [2, 16]: 1.00 × 10^−5
% Kill [2, 17]: 99.99%
Surviving MRSA [2, 17]: 1.00 × 10^−4
% Kill [2, 18]: 99.99%
Surviving MRSA [2, 18]: 1.00 × 10^−8
% Kill [2, 19]: 99.99%
Surviving MRSA [2, 19]: 1.00 × 10^−9
% Kill [2, 20]: 99.99%
Surviving MRSA [2, 20]: 1.00 × 10^−9
% Kill [2, 21]: 99.99%
Surviving MRSA [2, 21]: 1.00 × 10^−7
% Kill [2, 22]: 99.99%
Surviving MRSA [2, 22]: 1.00 × 10^−9
% Kill ([2]; (1/40) MIC compound + Light): 99.99%
Surviving MRSA ([2]; (1/40) MIC compound + Light): 1.00 × 10^−8
Synergy with Norfloxacin [2]: 5-log reduction
Synergy with Oxacillin [2]: 5-log reduction
log reduction in the number of surviving cells (CFU/mL), co-treatment with norfloxacin [2]: ~5 log
log reduction in the number of surviving cells (CFU/mL), co-treatment with oxacillin [2]: ~5 log
Orders of Magnitude with Norfloxacin [2]: 9
Orders of Magnitude with Oxacillin [2]: >7
PMB + Comp [3]: 8.2 × 10^3 CFU/mL
Comp @ 20 µM [3]: 6.4 × 10^8 CFU/mL
Co-treatment with PME: log reduction in the CFU/mL compared to PME alone [4]: 2-log reduction
Co-treatment with PME: log reduction in the CFU/mL compared to PME alone ([4]; listed as compound 1): ~2 log reduction
reduction in the CFU/mL compared to co-treatment with compound 1 and PME ([4]; additional irradiation after an overnight incubation (λ2), FIG. 55): negligible reduction
log reduction in the CFU/mL compared to co-treatment with compound 1 and PME ([4]; light immediately after a 30 minute incubation with compound 1 (λ1), FIG. 55): ~8 log
PDT ([4]; with white light, TABLE 19): ~7-log reduction
MIC [5]: 100 µM (≈ 39 µg/mL)
Log Reduction ([7]; PME (0.1 μg/mL)): 2
Log Reduction ([7]; PME (0.1 μg/mL) + Light (2 min)): 8
MIC [8]: > 100 µM

From patent US9834514B2, “Antibiotic sensitivity-restoring and photosensitive agents” (New Mexico Tech Research Foundation, priority 2015, dated 2017)
